Laboratory results: paper PMC12785564, “Targeting Melanin Production: The Safety of Tyrosinase Inhibition” (International Journal of Molecular Sciences, 2025)

Key:
[1] = target: T1, norepinephrine transport (NET) (Homo sapiens, UniProt P23975); assay: SAFETYscan NET assay; format: biochemical; details: 0.1 µM to 10 µM tested
T1 construct: purchased Eurofins Discovery (San Diego, CA, USA), SAFETYscan E/IC50 SELECT service
Procedure: (§1) Pharmacological profiling was performed with the SAFETYscan^TM E/IC50 SELECT service provided by Eurofins Discovery (San Diego, CA, USA), based on the findings of in vitro assays used in pharmaceutical companies. Increasing concentrations of Thiamidol (0.1 µM to 10 µM) were tested against various ion channels, and a total of seventy-eight assays performed utilizing various output reads, including GPCR cAMP modulation, calcium mobilization, nuclear hormone receptor interactions, KINOMEscan binding, ion channel interactions, transporter interactions and enzymatic reactions. Methods are available online via Eurofins Discovery in the format of a sample report.

[2] = target: T2, COX2 (Homo sapiens, UniProt P35354); assay: SAFETYscan COX2 enzymatic inhibition; format: biochemical; details: 0.1 µM to 10 µM tested
T2 construct: purchased Eurofins Discovery (San Diego, CA, USA), SAFETYscan E/IC50 SELECT service
T2 sequence (P35354 18-604): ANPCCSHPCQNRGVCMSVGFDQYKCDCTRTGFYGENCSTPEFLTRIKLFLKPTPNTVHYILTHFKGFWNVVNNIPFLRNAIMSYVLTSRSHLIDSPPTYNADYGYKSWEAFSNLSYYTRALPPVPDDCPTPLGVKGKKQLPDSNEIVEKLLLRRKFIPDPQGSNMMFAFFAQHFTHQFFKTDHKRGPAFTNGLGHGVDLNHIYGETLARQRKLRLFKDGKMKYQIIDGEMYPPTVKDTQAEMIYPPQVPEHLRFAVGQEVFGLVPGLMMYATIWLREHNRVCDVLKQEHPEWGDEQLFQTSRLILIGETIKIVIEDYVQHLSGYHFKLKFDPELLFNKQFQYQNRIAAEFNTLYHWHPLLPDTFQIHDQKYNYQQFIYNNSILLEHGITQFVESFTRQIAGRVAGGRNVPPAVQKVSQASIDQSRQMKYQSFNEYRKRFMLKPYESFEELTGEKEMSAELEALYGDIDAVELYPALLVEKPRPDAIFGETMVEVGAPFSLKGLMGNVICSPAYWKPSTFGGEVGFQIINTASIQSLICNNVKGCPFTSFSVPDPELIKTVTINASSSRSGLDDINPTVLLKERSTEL
Procedure: as §1

[3] = target: T3, COX1 (Homo sapiens, UniProt P23219); assay: SAFETYscan COX1 enzymatic inhibition; format: biochemical; details: 0.1 µM to 10 µM tested
T3 construct: purchased Eurofins Discovery (San Diego, CA, USA), SAFETYscan E/IC50 SELECT service
Procedure: as §1

[4] = target: T4, dopamine transport (DAT) (Homo sapiens, UniProt Q01959); assay: SAFETYscan DAT assay; format: biochemical; details: 0.1 µM to 10 µM tested
T4 construct: purchased Eurofins Discovery (San Diego, CA, USA), SAFETYscan E/IC50 SELECT service
Procedure: as §1

[5] = tested on: hyperpigmentation; details: cited from earlier work
[6] = target: T5, monoamine oxidase A (MOAO) (Homo sapiens, UniProt P21397); assay: SAFETYscan monoamine oxidase A enzymatic inhibition; format: biochemical; details: 0.1 µM to 10 µM tested
T5 construct: purchased Eurofins Discovery (San Diego, CA, USA), SAFETYscan E/IC50 SELECT service
T5 sequence (P21397 1-527): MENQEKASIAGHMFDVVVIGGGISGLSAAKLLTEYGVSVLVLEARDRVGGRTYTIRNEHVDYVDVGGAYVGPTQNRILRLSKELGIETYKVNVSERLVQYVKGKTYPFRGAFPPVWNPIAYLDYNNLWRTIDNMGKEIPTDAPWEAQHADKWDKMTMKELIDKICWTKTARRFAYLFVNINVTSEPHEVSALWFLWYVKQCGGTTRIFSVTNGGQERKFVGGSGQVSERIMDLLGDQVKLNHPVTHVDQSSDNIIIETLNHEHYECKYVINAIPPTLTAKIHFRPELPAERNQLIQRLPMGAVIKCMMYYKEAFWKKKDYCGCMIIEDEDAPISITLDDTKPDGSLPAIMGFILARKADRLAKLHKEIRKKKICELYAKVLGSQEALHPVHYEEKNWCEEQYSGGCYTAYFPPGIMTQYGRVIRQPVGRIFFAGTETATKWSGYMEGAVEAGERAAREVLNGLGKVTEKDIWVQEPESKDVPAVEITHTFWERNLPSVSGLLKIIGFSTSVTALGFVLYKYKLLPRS
Procedure: as §1

[7] = tested on: reconstructed human epidermis; assay: in vitro skin corrosion / skin irritation, OECD TG 431 and 439 (human skin model, reconstructed human epidermis); format: cell-based; details: non-animal OECD methods
Excerpt: These are amongst the first and most established non-animal methods adopted by the Organisation for Economic Co-operation and Development. Clinical skin tolerability studies for the final formulation containing Thiamidol provide confirmatory evidence but also information about consumer sensory experiences.
(§2) Thiamidol used for testing was sourced from Alzchem Group AG (Trostberg, Germany) with a purity of 99% w/w. For standard toxicological endpoints of skin irritation, phototoxicity and genotoxicity, in vitro studies were performed following equivalent methods to those described in the corresponding OECD Testing Guidelines: OECD Test Guideline No. 431 (In Vitro Skin Corrosion: Human Skin Model Test); OECD Test Guideline No. 439 (In Vitro Skin Irritation: Reconstructed Human Epidermis Test Method); OECD Test Guideline No. 432 (In Vitro 3T3 NRU Phototoxicity Test); OECD Test Guideline No. 471 (Bacterial Reverse Mutation Assay); OECD Test Guideline No. 487 (in vitro Mammalian Cell Micronucleus Test); and OECD Test Guideline No. 476 (in vitro Mammalian Cell Gene Mutation Test).

[8] = substrate depletion in human hepatocytes; format: in vitro ADME; details: 5 μM, 37 °C, over 240 min
Procedure: (§3) Metabolism in skin is evident with approx. 50% of Thiamidol degraded in a pig skin assay compared to controls after 24 h, irrespective of test sample concentration. A semiquantitative analysis of the metabolites in the porcine in vitro model is shown in Figure 2, with the primary reactions due to direct glucuronic acid conjugation (phase II metabolism) at one of the free hydroxyl groups. Further degradation products could be attributed to a combination of phase I and phase II metabolism, i.e., hydroxylation and methylation.
(§4) A biotransformation study analyzed the degradation of Thiamidol in fresh pig skin at room temperature after 24 h exposure. A solution of 0.3% and 1.0% was prepared in 2-proanol. From this, about 25 µL of test solution was placed in three vials with 2.5 g of skin, as well as controls without skin or containing skin only. All samples were mixed with 0.5 mL of water, shaken and left open. Determination of the content of the test sample was carried out in parallel. After 24 h incubation, the samples were mixed with 2 mL of acetonitrile, placed in an ultrasonic bath for 10 min (resulting in a stop to any metabolic reactions) and extracted with 50% methanol, then shaken well and placed in an ultrasonic bath and filtered. […]
The in vitro intrinsic clearances and half-life readouts were expressed as µL/min/10^6 cells and in minutes, respectively. […]

[9] = tested on: 3T3; assay: 3T3 Neutral Red Uptake (NRU) cytotoxicity / phototoxicity, OECD TG 432; format: cell-based; details: presence of UV light
Excerpt: (§5) From established in vitro guideline studies, potential genotoxicity and toxic effects at a cellular level can be elucidated. This can be complemented with a weight-of-evidence of any observed indicators of cytotoxicity in multiple assays. For instance, the 3T3 Neutral Red Uptake (NRU) assay, which was initially developed for phototoxicity, can provide an indication for local toxicity in the absence of UV light.
as §2

[10] = as above; format: cell-based; details: mouse, 3T3 cells; absence of UV light; Beiersdorf internal report; read-out: NR50 (IC50 for neural uptake), cytotoxicity in 3T3 NRU
Excerpt: as §5, §2

[11] = target: recombinant human tyrosinase (hTyr); design: method as in PMID 29427586; details: read-out: half-maximal inhibitory concentration (IC50) for hTyr; cited from earlier work
[12] = biotransformation in fresh pig skin; format: in vitro ADME; details: after 24 h, irrespective of test sample concentration (0.3% and 1.0%)
Procedure: as §3
as §4, with “filtered. Metabolites were then identified using liquid chromatography coupled with mass spectroscopy.” for “filtered.”

[13] = tested on: 3T3; design: method as in PMID 15598357; details: same assay; read-out: IC50 for cytotoxicity in 3T3 Neutral Red Uptake (NRU); cited from earlier work

T3 sequence (P23219 24-599): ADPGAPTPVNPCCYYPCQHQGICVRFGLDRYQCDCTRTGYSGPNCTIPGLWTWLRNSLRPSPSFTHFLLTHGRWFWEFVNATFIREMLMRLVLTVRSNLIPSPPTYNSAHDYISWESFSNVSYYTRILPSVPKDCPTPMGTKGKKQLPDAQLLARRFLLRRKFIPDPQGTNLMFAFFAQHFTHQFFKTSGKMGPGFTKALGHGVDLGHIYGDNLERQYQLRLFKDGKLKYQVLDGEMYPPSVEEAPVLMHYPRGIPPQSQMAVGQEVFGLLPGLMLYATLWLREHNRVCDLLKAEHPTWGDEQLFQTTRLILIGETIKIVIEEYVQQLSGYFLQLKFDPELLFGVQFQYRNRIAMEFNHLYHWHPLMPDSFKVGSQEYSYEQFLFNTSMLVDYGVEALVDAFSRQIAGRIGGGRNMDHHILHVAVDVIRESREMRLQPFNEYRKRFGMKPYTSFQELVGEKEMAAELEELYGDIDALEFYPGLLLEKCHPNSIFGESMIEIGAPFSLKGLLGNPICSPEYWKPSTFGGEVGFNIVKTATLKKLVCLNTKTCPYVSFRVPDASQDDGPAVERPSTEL
T4 sequence (Q01959 whole entry): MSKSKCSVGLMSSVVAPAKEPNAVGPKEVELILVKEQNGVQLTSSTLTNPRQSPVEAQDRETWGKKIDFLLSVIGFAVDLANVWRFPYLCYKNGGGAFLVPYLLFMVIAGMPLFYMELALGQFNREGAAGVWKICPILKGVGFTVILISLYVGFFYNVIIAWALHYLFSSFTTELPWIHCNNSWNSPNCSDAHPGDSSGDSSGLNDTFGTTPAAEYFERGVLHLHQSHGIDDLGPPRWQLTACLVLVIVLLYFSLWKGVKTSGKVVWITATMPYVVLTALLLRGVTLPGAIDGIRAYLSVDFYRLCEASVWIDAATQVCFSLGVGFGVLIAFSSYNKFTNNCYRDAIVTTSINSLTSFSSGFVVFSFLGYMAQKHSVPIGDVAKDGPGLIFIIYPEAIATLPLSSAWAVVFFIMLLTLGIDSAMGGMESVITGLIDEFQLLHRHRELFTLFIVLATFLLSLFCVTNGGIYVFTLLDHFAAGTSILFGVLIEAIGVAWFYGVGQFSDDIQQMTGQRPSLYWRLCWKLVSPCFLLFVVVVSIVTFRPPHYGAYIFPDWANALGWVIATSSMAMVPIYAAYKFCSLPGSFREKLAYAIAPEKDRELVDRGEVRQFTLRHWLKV
T1 sequence (P23975 whole entry): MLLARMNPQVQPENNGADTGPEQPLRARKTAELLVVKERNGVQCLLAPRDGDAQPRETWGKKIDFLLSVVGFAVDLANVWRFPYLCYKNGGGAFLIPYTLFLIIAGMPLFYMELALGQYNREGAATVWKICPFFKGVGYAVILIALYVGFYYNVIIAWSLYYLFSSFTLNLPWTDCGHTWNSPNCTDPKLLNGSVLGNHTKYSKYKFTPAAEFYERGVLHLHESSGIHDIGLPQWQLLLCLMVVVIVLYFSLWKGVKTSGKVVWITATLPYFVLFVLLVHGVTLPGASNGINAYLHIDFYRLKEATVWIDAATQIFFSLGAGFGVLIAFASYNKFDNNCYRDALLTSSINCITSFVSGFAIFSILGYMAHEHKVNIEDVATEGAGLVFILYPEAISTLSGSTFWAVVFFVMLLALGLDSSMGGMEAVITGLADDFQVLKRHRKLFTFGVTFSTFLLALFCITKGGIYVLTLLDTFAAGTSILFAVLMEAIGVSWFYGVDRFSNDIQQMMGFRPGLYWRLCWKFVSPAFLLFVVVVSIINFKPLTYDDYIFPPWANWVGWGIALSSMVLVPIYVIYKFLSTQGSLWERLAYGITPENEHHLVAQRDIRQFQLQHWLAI

CC(C)C(=O)Nc1nc(-c2ccc(O)cc2O)cs1 [Thiamidol, isobutylamido thiazolyl resorcinol]
IC50 [1]: 360 nM | IC50 [2]: > 1000 nM | IC50 [3]: > 1000 nM | IC50 [4]: > 1000 nM | adverse effects in clinical studies ([5]; Thiamidol formulations, diverse skin- and phototypes): no significant adverse effects | effect on hyperpigmentation in clinical studies ([5]; UV-induced solar lentigines, melasma, acne- and laser-induced PIH): effectively reduces hyperpigmentation | IC50 [6]: > 1000 nM | skin corrosion and irritation category [7]: not categorized as corrosive or irritating to the skin | in vitro half-life in human hepatocytes [8]: in the minute range | phototoxicity: distinction of NR50 in the presence of UV light [9]: no biologically significant distinction | IC50 [10]: 136000 nM | IC50 [11]: 1100 nM | degraded in pig skin assay compared to controls [12]: approx. 50%

Oc1ccccc1O [catechol]
IC50 [13]: 100 nM

Oc1ccc(O)cc1 [hydroquinone]
IC50 [13]: 12900 nM

Oc1cccc(O)c1 [resorcinol, 1,3-benzenediol]
IC50 [13]: 17300 nM
